Laboratory results: ChEMBL document CHEMBL5465560, “Selectivity Literature for EUbOPEN Chemogenomic Library” (2024)

Assays:
[1] = target: T1, Dual specificity tyrosine-phosphorylation-regulated kinase 2 (Homo sapiens, UniProt Q92630); experiment: Selectivity interaction (Enzymatic assay (Eurofins)) EUB0001049a DYRK2
T1 sequence (Q92630 whole entry): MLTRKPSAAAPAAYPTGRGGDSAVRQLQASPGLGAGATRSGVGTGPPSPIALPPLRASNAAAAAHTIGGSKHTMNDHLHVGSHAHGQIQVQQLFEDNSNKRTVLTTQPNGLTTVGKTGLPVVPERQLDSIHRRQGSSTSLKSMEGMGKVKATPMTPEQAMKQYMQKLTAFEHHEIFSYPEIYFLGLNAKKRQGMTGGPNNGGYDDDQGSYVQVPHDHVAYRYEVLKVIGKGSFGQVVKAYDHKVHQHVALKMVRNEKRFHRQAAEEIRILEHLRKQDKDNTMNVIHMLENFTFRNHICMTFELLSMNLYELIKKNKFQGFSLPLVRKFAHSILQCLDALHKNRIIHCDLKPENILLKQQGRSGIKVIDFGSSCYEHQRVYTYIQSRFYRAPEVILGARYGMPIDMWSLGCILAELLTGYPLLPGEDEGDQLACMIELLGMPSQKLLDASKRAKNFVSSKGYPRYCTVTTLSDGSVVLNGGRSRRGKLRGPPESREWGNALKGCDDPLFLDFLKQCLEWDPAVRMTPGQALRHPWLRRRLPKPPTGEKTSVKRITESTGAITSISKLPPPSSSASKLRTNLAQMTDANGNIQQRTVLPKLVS

[2] = target: ALK tyrosine kinase receptor (Homo sapiens, UniProt Q9UM73); experiment: Selectivity interaction (KinomeScan (DiscoverX)) EUB0000666a ALK; details: at 10 µM
Sequence of ALK tyrosine kinase receptor (Q9UM73 19-1620 limits assumed): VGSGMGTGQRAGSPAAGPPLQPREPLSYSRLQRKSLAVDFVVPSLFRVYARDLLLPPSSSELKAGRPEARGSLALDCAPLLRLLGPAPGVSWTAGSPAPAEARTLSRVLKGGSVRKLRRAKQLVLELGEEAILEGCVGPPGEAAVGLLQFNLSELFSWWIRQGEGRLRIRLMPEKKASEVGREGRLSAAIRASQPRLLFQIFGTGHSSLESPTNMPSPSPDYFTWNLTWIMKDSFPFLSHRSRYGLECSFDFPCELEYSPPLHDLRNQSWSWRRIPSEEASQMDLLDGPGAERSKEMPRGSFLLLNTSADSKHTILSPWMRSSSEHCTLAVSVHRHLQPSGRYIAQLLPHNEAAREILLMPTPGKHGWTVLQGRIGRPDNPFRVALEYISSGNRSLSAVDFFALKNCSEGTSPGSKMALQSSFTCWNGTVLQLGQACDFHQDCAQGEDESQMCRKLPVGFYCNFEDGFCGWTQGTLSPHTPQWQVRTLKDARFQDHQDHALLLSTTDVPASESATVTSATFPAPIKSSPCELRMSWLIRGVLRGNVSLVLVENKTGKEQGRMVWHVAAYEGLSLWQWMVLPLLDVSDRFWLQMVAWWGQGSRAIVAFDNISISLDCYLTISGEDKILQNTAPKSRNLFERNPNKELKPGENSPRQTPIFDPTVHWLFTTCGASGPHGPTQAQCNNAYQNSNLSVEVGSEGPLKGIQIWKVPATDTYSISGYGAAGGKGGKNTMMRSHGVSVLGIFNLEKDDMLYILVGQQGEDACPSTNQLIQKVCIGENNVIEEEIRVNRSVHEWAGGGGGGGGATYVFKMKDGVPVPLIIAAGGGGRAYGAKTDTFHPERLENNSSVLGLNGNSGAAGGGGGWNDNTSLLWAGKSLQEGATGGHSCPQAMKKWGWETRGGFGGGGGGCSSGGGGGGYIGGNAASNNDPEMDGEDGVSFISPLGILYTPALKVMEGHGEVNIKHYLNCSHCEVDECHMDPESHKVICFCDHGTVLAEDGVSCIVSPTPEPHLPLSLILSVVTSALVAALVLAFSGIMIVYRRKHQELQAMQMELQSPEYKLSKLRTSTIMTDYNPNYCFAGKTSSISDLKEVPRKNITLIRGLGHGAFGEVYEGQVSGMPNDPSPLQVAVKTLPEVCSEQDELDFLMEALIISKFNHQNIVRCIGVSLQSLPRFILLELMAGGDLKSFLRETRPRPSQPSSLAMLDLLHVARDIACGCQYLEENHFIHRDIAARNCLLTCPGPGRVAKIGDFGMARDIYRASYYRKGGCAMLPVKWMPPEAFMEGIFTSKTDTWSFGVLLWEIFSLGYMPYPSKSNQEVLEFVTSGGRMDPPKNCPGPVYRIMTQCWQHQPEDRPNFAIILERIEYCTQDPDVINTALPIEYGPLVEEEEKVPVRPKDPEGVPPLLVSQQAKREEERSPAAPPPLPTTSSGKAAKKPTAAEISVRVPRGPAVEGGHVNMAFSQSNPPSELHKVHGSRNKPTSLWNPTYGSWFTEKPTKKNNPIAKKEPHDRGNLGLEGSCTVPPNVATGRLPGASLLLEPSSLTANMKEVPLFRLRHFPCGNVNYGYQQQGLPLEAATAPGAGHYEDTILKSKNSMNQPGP

[3] = target: Histone-lysine N-methyltransferase NSD3 (Homo sapiens, UniProt Q9BZ95); experiment: Selectivity interaction (Binding affinity assay (SPR measurement)) EUB0000270b NSD3
Sequence of Histone-lysine N-methyltransferase NSD3 (Q9BZ95 whole entry): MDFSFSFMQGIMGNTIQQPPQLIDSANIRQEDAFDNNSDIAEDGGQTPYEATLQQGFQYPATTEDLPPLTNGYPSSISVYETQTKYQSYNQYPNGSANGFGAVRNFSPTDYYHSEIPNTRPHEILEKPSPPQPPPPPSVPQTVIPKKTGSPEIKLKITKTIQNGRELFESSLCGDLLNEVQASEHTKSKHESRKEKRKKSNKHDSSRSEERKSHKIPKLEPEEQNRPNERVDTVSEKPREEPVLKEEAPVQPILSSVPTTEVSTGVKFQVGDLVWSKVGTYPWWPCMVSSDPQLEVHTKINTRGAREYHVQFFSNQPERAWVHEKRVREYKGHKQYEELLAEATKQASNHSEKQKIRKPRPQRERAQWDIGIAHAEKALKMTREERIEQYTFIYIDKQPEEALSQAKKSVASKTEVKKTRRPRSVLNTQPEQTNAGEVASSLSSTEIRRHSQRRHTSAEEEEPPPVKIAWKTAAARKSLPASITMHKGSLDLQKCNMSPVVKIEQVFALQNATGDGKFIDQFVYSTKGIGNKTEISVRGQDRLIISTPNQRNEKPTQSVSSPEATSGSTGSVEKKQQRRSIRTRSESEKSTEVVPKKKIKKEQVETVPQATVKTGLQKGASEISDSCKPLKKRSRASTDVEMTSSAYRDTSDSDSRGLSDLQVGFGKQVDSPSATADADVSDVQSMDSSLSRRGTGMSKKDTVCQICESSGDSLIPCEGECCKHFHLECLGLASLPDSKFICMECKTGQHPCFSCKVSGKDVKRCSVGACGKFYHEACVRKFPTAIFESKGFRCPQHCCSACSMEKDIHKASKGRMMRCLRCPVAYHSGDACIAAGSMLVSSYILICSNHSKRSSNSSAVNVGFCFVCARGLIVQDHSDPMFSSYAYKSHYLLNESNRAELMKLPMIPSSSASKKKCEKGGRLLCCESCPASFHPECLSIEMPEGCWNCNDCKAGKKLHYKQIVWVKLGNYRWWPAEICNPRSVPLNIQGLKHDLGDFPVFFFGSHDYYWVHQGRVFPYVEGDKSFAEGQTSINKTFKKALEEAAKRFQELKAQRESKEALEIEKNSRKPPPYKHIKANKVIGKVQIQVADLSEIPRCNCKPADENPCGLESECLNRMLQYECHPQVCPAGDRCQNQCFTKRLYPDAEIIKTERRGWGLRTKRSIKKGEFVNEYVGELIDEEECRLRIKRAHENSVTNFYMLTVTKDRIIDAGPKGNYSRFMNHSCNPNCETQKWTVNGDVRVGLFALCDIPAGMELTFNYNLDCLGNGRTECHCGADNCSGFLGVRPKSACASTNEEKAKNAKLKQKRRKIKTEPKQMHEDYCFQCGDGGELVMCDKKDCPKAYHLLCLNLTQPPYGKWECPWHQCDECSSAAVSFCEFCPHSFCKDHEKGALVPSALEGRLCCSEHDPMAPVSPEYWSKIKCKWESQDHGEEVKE

[4] = target: Calcium/calmodulin-dependent protein kinase type II subunit beta (Homo sapiens) (UniProt Q13554); experiment: Selectivity interaction (KinomeScan (DiscoverX)) EUB0000092b CAMK2B; details: at 10 µM
Sequence of Calcium/calmodulin-dependent protein kinase type II subunit beta (Homo sapiens) (Q13554 whole entry): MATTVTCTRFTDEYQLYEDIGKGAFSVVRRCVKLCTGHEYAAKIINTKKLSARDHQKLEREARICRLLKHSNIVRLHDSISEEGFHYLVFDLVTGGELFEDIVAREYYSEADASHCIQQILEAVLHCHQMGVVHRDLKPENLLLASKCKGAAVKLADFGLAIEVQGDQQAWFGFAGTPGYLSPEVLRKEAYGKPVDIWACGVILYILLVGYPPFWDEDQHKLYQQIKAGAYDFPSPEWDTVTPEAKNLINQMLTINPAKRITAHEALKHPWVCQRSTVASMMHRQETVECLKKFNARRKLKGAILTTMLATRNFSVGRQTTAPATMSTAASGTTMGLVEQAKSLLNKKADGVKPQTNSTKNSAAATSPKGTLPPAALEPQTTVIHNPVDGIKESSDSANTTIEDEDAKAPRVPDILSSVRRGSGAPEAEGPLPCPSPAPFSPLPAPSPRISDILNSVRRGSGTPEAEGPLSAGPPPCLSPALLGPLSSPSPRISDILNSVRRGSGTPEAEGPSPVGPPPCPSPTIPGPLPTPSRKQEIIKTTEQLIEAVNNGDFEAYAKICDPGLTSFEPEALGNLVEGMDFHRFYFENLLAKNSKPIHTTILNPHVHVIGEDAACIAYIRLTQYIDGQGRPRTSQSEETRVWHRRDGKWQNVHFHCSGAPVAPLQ

[5] = target: T2, Serine/threonine-protein kinase LATS1 (Homo sapiens) (UniProt O95835); experiment: Selectivity interaction (KinomeScan (DiscoverX)) EUB0000092b LATS1; details: at 10 µM
T2 sequence (whole entry): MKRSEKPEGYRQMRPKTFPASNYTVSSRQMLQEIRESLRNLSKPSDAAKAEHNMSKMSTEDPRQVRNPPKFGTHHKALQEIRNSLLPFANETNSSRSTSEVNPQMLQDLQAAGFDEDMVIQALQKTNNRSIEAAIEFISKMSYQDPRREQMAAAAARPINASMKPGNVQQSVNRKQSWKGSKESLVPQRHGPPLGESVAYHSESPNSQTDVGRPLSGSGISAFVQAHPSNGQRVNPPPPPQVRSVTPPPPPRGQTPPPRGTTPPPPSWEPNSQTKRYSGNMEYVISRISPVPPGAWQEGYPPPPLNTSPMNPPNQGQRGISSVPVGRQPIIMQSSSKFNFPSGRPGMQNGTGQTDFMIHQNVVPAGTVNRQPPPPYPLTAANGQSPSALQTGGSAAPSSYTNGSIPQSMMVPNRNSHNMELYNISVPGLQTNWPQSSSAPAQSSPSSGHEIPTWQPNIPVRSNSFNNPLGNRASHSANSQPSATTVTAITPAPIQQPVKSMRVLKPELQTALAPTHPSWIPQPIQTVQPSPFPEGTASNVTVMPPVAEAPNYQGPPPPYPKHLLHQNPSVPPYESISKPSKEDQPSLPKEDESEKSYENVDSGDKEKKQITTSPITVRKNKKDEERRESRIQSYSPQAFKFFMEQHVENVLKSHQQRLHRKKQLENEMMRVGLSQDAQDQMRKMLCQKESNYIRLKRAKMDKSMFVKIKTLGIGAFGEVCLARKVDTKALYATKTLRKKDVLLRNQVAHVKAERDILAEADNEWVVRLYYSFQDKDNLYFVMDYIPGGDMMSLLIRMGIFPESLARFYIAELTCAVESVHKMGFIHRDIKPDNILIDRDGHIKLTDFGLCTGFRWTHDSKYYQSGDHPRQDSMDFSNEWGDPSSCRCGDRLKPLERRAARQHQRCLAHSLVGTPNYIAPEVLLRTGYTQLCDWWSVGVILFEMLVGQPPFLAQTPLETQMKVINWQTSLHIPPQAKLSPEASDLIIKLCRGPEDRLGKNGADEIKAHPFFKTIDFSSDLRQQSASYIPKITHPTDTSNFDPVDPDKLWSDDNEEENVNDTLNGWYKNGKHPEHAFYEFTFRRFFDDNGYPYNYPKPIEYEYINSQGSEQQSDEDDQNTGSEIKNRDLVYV

[6] = target: Calcium/calmodulin-dependent protein kinase type II subunit beta (Homo sapiens) (UniProt Q13554); details: at 10 µM
[7] = target: T3, Receptor-interacting serine/threonine-protein kinase 4 (Homo sapiens) (UniProt P57078); experiment: Selectivity interaction (KinomeScan (DiscoverX)) EUB0001619a RIPK4; details: at 1 µM
T3 sequence (whole entry): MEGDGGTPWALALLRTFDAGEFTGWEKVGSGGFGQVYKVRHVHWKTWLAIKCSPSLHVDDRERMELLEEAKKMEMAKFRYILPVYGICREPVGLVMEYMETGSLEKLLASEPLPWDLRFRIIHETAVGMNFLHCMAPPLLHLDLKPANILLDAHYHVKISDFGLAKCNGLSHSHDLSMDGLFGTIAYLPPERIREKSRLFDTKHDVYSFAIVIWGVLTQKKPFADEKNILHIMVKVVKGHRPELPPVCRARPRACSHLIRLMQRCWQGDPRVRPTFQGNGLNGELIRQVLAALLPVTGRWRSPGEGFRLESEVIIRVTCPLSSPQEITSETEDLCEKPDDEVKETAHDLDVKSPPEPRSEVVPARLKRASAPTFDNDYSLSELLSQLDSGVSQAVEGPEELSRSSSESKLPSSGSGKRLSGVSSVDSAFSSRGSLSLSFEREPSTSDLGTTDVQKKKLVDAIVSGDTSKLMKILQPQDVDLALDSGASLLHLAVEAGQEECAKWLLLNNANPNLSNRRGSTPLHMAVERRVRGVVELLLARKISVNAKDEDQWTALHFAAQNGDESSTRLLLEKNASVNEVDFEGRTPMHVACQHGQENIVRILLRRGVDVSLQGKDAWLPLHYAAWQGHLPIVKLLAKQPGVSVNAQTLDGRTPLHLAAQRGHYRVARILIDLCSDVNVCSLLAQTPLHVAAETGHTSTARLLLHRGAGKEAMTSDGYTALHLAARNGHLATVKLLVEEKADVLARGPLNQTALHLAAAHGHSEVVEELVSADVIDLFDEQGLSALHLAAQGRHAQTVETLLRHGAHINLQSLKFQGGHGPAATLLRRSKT

Structure (SMILES): COc1cc(Nc2nc(C)cc(-c3cnn4nc(OC)ccc34)n2)cc(C(F)(F)F)c1
- IC50 [1]: > 10 µM

Structure (SMILES): O=C(NOC[C@H](O)CO)c1ccc(F)c(F)c1Nc1ccc(I)cc1F
- % of control [2]: 100%

Structure (SMILES): Cc1cc(CN)cc(C)c1-c1ncn(C)c1-c1cncn1C
- Kd [3]: 144 µM

Structure (SMILES): CCC(=O)N1CCN(c2ccc(-n3c(=O)ccc4cnc5ccc(-c6cnc7ccccc7c6)cc5c43)cc2C(F)(F)F)CC1
- % of control [4]: 100%
- % of control [5]: 100%

Structure (SMILES): Cc1cc([C@@H](C)Nc2ccccc2C(=O)O)c2nc(N3CCOCC3)cc(=O)n2c1 [AZD-6482]
- % of control [6]: 83%

Structure (SMILES): N#Cc1cccc(-c2c[nH]c3ncnc(N4CCOCC4)c23)c1
- % of control [7]: 57%
